Results published in patent US20230102192A1, “THERAPIES FOR THE TREATMENT OF DISEASES AND DISORDERS ASSOCIATED WITH ABNORMAL EXPRESSION OF A NEURAL-ASSOCIATED GENE” (The Regents of the University of California, priority 2020, published 2023).
“Also recorded” adds a separate entry of the source.

Tests used:
Assay type in all cases: cell-based, human
MECP2-KO neurons [1] = assay: Co-localized pre/postsynaptic puncta quantification in neurons; conditions: one-month old MECP2-KO neurons treated two weeks
Procedure: Pharmacologic treatment. One-month old cortical organoids were treated for 1 mo with either Nefiracetam (10 μM) or PHA 543613 (10 μM) during media changes.
Synaptic puncta quantification. Co-localized pre and postsynaptic puncta (Vglut and Homer1 immunostained) along MAP2-positive processes were quantified. Primary antibodies (see above) incubated 2 h, secondary antibodies incubated 1 h, and coverslips were mounted. Slides were analyzed under fluorescence microscopy.
Pharmacologic screening identifies two compounds that specifically reverse MECP2-KO phenotypes. 14 commercially available pharmacologic compounds with mechanisms of action that counteract the synapse and neurotransmitter pathologies were selected and which are identified in FIG. 5B. […] MECP2-KO and control neurons were treated with each of the 14 compounds and employed a tiered series of assays to identify those that could selectively rescue MECP2-KO pathology without affecting controls. […] The capacity of these compounds to increase pre and post co-localized synaptic puncta in MECP2-KO neurons were evaluated, again eliminating the drugs that affected control neurons (see FIG. 5F-G, and FIG. 6C-D).

MECP2-KO neurons [2] = assay: Neuronal morphology (neurites, spine density); conditions: vs KO untreated
Procedure: Spine density and morphology/stability/motility. pHIV7/Syn-EGFP lentivirus was prepared by transfecting HEK cells using the transfection agent polyethyleneimine (Polysciences, Inc., Warrington, Pa., USA), pSyn-EGFP and packaging plasmids pMDL, Rev RSV and VSVG. During cortical neuron differentiation, on day 40, control and MECP2dup neurons were transduced with pHIV7/syn-EGFP. Post transduction, neurons were further differentiated until day 70 and were fixed with 4% PFA and further processed for imaging. Confocal images were obtained using a confocal laser-scanning microscope (Nikon), 60× oil objective, with a sequential acquisition setting at 4096×4096 pixels resolution. Each image is a Z-series projection of ˜7 to 15 images, averaged 2 times and taken at 0.5 μm depth intervals. GFP-labeled differentiated neurons were chosen randomly for quantification. Quantitative analysis was performed in a blinded manner. Dendrites on primary branches were selected randomly and for each neuron two to three segments of 10 μm were analyzed. Morphometric measurements were performed manually using the ImageJ software (1.44p version). Each spine on the dendrites was manually traced. The length and head width of each spine was automatically measured and used to categorize the spines. Specifically, spines where defined as thin and filopodia (immature) or mushroom and stubby (mature) according to the criteria defined previously. Twenty-two (51 segments of 10 μm) and 18 (42 segments of 10 μm) neurons were analyzed for the control and MECP2dup neurons, respectively; two clones for each condition.
Analysis of neuronal morphology. PSC-derived neuronal morphometry was performed as described in Chailangkarn et al. Briefly, neurons with branching neurites featuring dendritic spine-like protrusions were selected, and neuronal morphology was quantified using Neurolucida v9 (MBF Bioscience, Williston, Vt.) via Nikon Eclipse E600 microscope (40× oil). Measurements were as follows: Spine number: number of spines protruding from neurites; soma size: soma area on cross-section; spine length: summed length of all spines per neuron. The rater traced the same neuron after a period of time to ensure intra-rater reliability.

[3] = tested on: MECP2-mosaic (CTR/KO) neurospheres; assay: Neurosphere size (diameter); conditions: 8-week MECP2-mosaic neurospheres, P=0.79
Text: Nefiracetam and PHA 543613 increase activity in MECP2-mosaic neurospheres. Because MECP2 resides on the X chromosome, random X-inactivation in females can produce a genetic pattern of mosaicism, with consequent phenotypic gradation, in which some cells express the normal allele while others are mutant. Therefore, as the next stage to evaluate the two drug candidates, a neurosphere model of MECP2 mosaicism was developed to mimic the female RTT brain by combining different proportions of control and MECP2-KO NPCs (see FIG. 7A-C). […] Calcium transient frequency in MECP2-mosaic neurospheres was increased by treatment with Nefiracetam in isolation (1 μM, P<0.05) and when combined with PHA 543613 (10 μM, P<0.001; FIG. 7H), but calcium transient amplitude was unaffected by either compound (P=0.255; FIG. 7I). To investigate the impact of the drug treatments on the electrophysiological properties of the MECP2-mosaic model, neurospheres treated with 1 μM Nefiracetam, 1 μM PHA 543613, or both Nefiracetam and PHA 543613 were plated to perform MEA analysis. […] Because each drug conferred a benefit to MECP2-mosaic neurospheres, both Nefiracetam and PHA 543613 were retained for further evaluation in a more complex human neurodevelopmental model.

[4] = tested on: MECP2-mosaic (CTR/KO) neurospheres; assay: Calcium imaging of neurospheres; conditions: for calcium transient amplitude: P=0.255
Procedure: Calcium imaging. Calcium imaging was performed as described in Chailangkarn et al. Briefly, PSC-derived neuronal networks were lentivirally transduced with a Syn::RFP reporter construct. Cultures were washed with Krebs HEPES buffer and incubated with Fluo-4AM (Molecular Probes/Invitrogen, Carlsbad, Calif., USA). A Hamamatsu ORCA-ER digital camera (Hamamatsu Photonics, Japan) with 488 nm filter on an Olympus IX81 inverted fluorescence confocal microscope (Olympus Optical, Tokyo, Japan) acquired 5000 frames at 28 Hz in a 256×256 pixel region (100× magnification). Images were acquired with MetaMorph7.7 (MDS Analytical Technologies, Sunnyvale, Calif., USA) and analyzed with ImageJ and Matlab7.2 (Mathworks, Natick, Mass., USA). Syn::RFP+ neurons were selected following tetrodotoxin blockade of calcium transients. A 95th-percentile threshold of amplitude for calcium spikes was set for event detection; signal amplitude is presented as fluorescence change (ΔF/F) following background subtraction.
Nefiracetam and PHA 543613 increase activity in MECP2-mosaic neurospheres. Because MECP2 resides on the X chromosome, random X-inactivation in females can produce a genetic pattern of mosaicism, with consequent phenotypic gradation, in which some cells express the normal allele while others are mutant. Therefore, as the next stage to evaluate the two drug candidates, a neurosphere model of MECP2 mosaicism was developed to mimic the female RTT brain by combining different proportions of control and MECP2-KO NPCs (see FIG. 7A-C). […] Calcium transient frequency in MECP2-mosaic neurospheres was increased by treatment with Nefiracetam in isolation (1 μM, P<0.05) and when combined with PHA 543613 (10 μM, P<0.001; FIG. 7H), but calcium transient amplitude was unaffected by either compound (P=0.255; FIG. 7I). To investigate the impact of the drug treatments on the electrophysiological properties of the MECP2-mosaic model, neurospheres treated with 1 μM Nefiracetam, 1 μM PHA 543613, or both Nefiracetam and PHA 543613 were plated to perform MEA analysis. […]

SMILES	synaptogenesis / co-localized synaptic puncta (MECP2-KO neurons [1])	number of neurites (MECP2-KO neurons [2])	total neurite length (MECP2-KO neurons [2])	neurosphere diameter [3]	calcium transient frequency ([4]; 1 μM, in isolation, P<0.05 vs CTR/KO untreated)	calcium transient amplitude [4]
Cc1cccc(C)c1NC(=O)CN1CCCC1=O [Nefiracetam, nefiracetam]	specifically increased synaptogenesis	did not increase; also recorded: did not rescue	did not increase; also recorded: did not rescue	did not alter	increased	unaffected
O=C(N[C@H]1CN2CCC1CC2)c1cc2ccoc2cn1 [PHA 543613, N-[(3R)-1-azabicyclo[2.2.2]oct-3-yl]furo[2,3-c]pyridine-5-carboxamide]	increases synaptic puncta	did not increase; also recorded: did not rescue	did not increase; also recorded: did not rescue	did not alter		unaffected
